Values of other authors, collected in patent US20060257475A1, “Stable Sertraline Hydrochloride Formulation and Method” (Boehringer Ingelheim International GmbH, priority 2006, published 2006).

Columns and labels:
[1] = reported in U.S. Pat. No. 5,248,699
[2] = reported in U.S. Pat. No. 5,734,083

In the case of `CN[C@H]1CC[C@@H](c2ccc(Cl)c(Cl)c2)c2ccccc21` [Form I, (1S-cis)-4-(3,4-Dichlorophenyl)-1,2,3,4-tetrahydro-N-methyl-1-napththalenamine], the “Stability among Forms I to V” value [1] is listed as “greatest stability of these five forms”, the “Thermodynamic stability relative to other crystalline forms” value ([1]; room temperature) is listed as “more thermodynamically stable than Forms II, III, IV, and V” and the Solubility [2] is listed as “extremely insoluble”.
